Values joined by “and” are separate entries in the source; they are usually repeats but may differ in a detail not shown here. Equal entries are not always repeated. Where two headings read alike, the source gives them in different places.
Tests used:
[1] = test system: Huh-7 cells containing HCV sub-genomic replicons (Ava.5); assay: cells; assay type: cell-based
[2] = test system: HCV sub-genomic replicons (Ava.5); assay: microbe, parasite or virus in culture; assay type: cell-based, hepatitis C virus
HCV = assay type: cell-based; settings: 300 nM As2O3 (data not shown)
[3] = huh-7 hcv replicon cells, 1440 min, 1 µM
[4] = huh-7 hcv replicon cells, 4320 min, 0.01 µM
[5] = huh-7 hcv replicon cells, 4320 min, 0.05 µM
[6] = huh-7 hcv replicon cells, 4320 min, 0.1 µM
[7] = huh-7 hcv replicon cells, 4320 min, 1 µM

| Compound | IC50 ([1]; read-out: IC50) [nM] | inhibition of HCV replication ([2]; 5 µM) | IC50 ([1]; read-out: ICso (concentration which causes 50% cell death)) | inhibition of the replication (HCV) | inhibition of replication of HCV RNA [2] | negative strand of HCV RNA detected (relative copy number) [2, 3] [%] | positive strand of HCV RNA detected (relative copy number) [2, 3] [%] | relative HCV RNA level (negative strand) [2, 4] [%] | relative HCV RNA level (positive strand) [2, 4] [%] | relative HCV RNA level (negative strand) [2, 5] [%] | relative HCV RNA level (positive strand) [2, 5] [%] | relative HCV RNA level (negative strand) [2, 6] [%] | relative HCV RNA level (positive strand) [2, 6] [%] | negative strand HCV RNA detected (relative copy number) [2, 7] [%] | positive strand RNA detected (relative copy number) [2, 7] [%] | EC50 ([2]; read-out: EC50) | IC50 ([1]; Hepatitis C virus, Ava5, 24 h) [nM] | EC50 ([2]; Hepatitis C virus, Ava5, 24 h) [nM] |
| --- | --- | --- | --- | --- | --- | --- | --- | --- | --- | --- | --- | --- | --- | --- | --- | --- | --- | --- |
| Potassium antimony tartrate [Potassium antimony tartrate (PAT)] | 35000 | 75 % inhibition of HCV replication at 5 µM of PAT treatment | – | – | – | – | – | – | – | – | – | – | – | – | – | – | – | – |
| arsenic trioxide [As2O3] | 6000 | – | 8500 nM and 4800 nM | completely | dose-dependent manner | 14.1 | 15.6 | 135.3 | 95.1 | 74.3 | 70 | 67.5 | 57.5 | 2.6 | 6.1 | 260 nM and 190 nM and 270 nM and 160 nM and 200 nM | – | – |
| O=[As]O [Sodium arsenite] | – | – | – | – | – | – | – | – | – | – | – | – | – | – | – | – | 10000 | 250 |
